One data set has as its target T1, human GPR119 (Homo sapiens, UniProt Q8TDV5).
T1 construct: expressed in transfected cells
T1 sequence (Q8TDV5 1-335): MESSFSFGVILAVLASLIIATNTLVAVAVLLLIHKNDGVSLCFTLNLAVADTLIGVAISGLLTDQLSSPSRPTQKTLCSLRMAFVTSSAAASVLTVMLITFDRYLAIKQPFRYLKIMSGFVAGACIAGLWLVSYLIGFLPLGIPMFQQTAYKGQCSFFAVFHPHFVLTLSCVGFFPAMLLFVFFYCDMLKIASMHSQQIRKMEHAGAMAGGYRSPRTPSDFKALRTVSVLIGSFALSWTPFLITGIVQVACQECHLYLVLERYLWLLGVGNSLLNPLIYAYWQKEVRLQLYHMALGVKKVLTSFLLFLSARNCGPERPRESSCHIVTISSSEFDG
Description: Intracellular cAMP increase in human GPR119 introduced cells (HitHunter cAMP XS+ Assay). The class given is cell-based. Conditions: for EC50: Table 17, method similar to Example 86, hGPR119 stable cells, intracellular cAMP; for GPR119 agonist effect (in words): hGPR119 introduced cells, cAMP. The source says:
The GPR119 agonist effect was studied by measuring the effect of an analyte on increase of intracellular amount of cAMP in human GPR119 introduced cells. The testing method is described below.
(1) Construction of the Stable Cell Line Expressing Human G Protein-Coupled-Receptor 119 (hGPR119) Human GPR119 gene (NM 178471) is purchased from American Type Culture Collection (ATCC No. 10807349). Hind III site-added forward side primer ([…]: sequence No. 1) and Apa I site-added reverse side primer ([…]: sequence No. 2) are designed. The target gene is amplyfied by a polymerase chain reaction (PCR) method using KOD-Plus-Ver. 2 (TOYOBO #KOD-211). PCR is conducted by repeating three steps consisting of the step of 98° C.-10 seconds, the step of 55° C.-30 seconds, and the step of 68° C.-1 minute and 10 seconds in 35 cycles. The amplified PCR product is inserted into pcDNA5/FRT/TO (Invitrogen #V6520-20) plasmid. Cells, which can constantly express the target gene with tetracycline, are constructed using Flp-In T-REx-systen (invitorogen).
(2) Measurement of Intracellular Cyclic Adenosine Monophosphate (cAMP)
The hGPR119 introduced cells prepared in (1) are plated on a 96-well plate using Dulbecco's Modified Eagle Medium containing heat-inactived 10% fetal bovine serum. After incubation of 24 hours, tetracyclin (invitrogen #Q10019) is added to the culture medium to induce hGPR119 gene expression. After further incubation of 24 hours, the cells are stimulated with 0.5 mM 3-ISOBUTYL-1-METHYLXANTHINE (Sigma #17018) phosphate buffer containing the analyte at 37° C. for 30 minutes. The amount of the intracellular cAMP is measured by using FLUOstar Optima (BMG LABTECH) according to the protocol of HitHunter™ cAMP XS+Assay (GE Healthcare #90007503) to give the agonist activity of the analyte to the GPR119 receptor.
(1) Construction of the Stable Cell Line Expressing Human G-Protein Coupled Receptor 119 (hGPR119) hGPR119 gene (NM 178471) was purchased from American Type Culture Collection (ATCC No. 10807349). The forward primer that was added a HindIII site ([…] (sequence number 1)), and the reverse primer that was added an ApaI site ([…] (sequence number 2)) were designed, the target gene was amplified by polymerase chain reaction (PCR) using a KOD-Plus-Ver.2 (TOYOBO #KOD-211). PCR was repeated 3 steps (98° C. for 10 sec, 55° C. for 30 sec, 68° C. for 1 min 15 sec) by 35 cycles. Amplified PCR product was inserted in pcDNA5/FRT/TO (Invitrogen #V6520-20), and the stable cell line that expresses target gene when induced with tetracycline was created using the Flp-In T-Rex system (Invitrogen).
(2) Measuring Method of Intracellular Cyclic Adenosine Monophosphate (cAMP) hGPR119 stable cells made by above-mentioned (1) were plated on 96 well plates in Dulbecco's Modified Eagle Medium containing 10% heat-inactivated FBS. After 24 hours, the hGPR119 expression was induced by adding medium containing tetracycline (Invitrogen #Q10019) and incubating for another 24 hours. Following incubation, cells were stimulated by 0.5 mM 3-ISOBUTYL-1-METHYLXANTHINE (Sigma #17018) phosphate buffered saline containing test compound for 30 minutes at 37° C. Agonist activity of test compound to the GPR119 receptor was estimated by measuring the intracellular cAMP concentration using a Fluostar optima plate reader (BMG LABTECH) according to the manufacturer's protocol of the HitHunter™ cAMP XS+Assay (GE Healthcare #90007503).
The examination was performed by the method similar to Example 86 (Pharmacological experiment 1)-(1), -(2).

The record followed here is US20140018537A1, “GPR119 AGONIST” (NIPPON CHEMIPHAR CO., LTD., priority 2008, published 2014).

By melting point is commonly meant the temperature of the solid-liquid transition. The term EC50 denotes the concentration giving half of the maximal effect. A higher EC50 goes with a less potent agent.

On to `CC(C)(C)OC(=O)N1CCC(c2ccc(COc3cccc([N+](=O)[O-])c3)nc2)CC1` [Example 30, tert-Butyl 4-[2-(3-nitrophenoxymethyl)pyridin-5-yl]piperidine-1-carboxylate], for which the melting point fell in the range of 94 to 96 °C.
As to `Cc1cc(C2CCN(C(=O)OC(C)(C)C)CC2)cnc1COc1ccc(S(C)(=O)=O)cc1Br` [Example 81, tert-Butyl 4-[2-(2-bromo-4-methanesulfonylphenoxymethyl)-3-methylpyridin-5-yl]piperidine-1-carboxylate], on human GPR119, a half-maximal effect (EC50) was put at 39.2 nM.
`CC(C)(C)CC(=O)N1CCC(c2ccc(COc3ccc(S(C)(=O)=O)cc3)nc2)CC1` [Example 46, 1-[4-[2-(4-Methanesulfonylphenoxymethyl)pyridin-5-yl]piperidin-1-yl]-3,3-dimethylbutan-1-one] came in with a melting point of 140 to 142 °C.
Still for that read-out and setting: the value for `CC(C)COC(=O)N1CCC(c2ccc(COc3ccc(S(C)(=O)=O)cc3)nc2)CC1` [Example 44, Isobutyl 4-[2-(4-methanesulfonylphenoxymethyl)pyridin-5-yl]piperidine-1-carboxylate] was 114 to 117 °C; that for `CC(C)(C)OC(=O)N1CC=C(c2cnc(COc3ccc(S(C)(=O)=O)cc3)cc2Cl)CC1` [Example 76, tert-Butyl 4-[4-chloro-2-(4-methanesulfonylphenoxymethyl)pyridin-5-yl]-3,6-dihydro-2H-pyridine-1-carboxylate] was 148 to 150 °C; that for `CCCCCc1cnc(N2CCC(c3ccc(COc4ccc(-n5cnnn5)cc4)nc3)CC2)nc1` [Example 56, 5-Pentyl-2-[4-[2-[4-(tetrazol-1-yl)phenoxymethyl]pyridin-5-yl]piperidin-1-yl]pyrimidine] was 174 to 176 °C.
`CC(C)(C)OC(=O)N1CCC(c2ccc(COc3ccc([N+](=O)[O-])cc3)nc2)CC1` [Example 33, tert-Butyl 4-[2-(4-nitrophenoxymethyl)pyridin-5-yl]-piperidine-1-carboxylate] registered a melting point of 149 to 150 °C.
As to `COc1cc(S(C)(=O)=O)ccc1OCc1ccc(C2CCN(C(=O)OC(C)(C)C)CC2)cn1` [Example 26, tert-Butyl 4-[2-(4-methanesulfonyl-2-methoxyphenoxymethyl)pyridin-5-yl]piperidine-1-carboxylate], the melting point lay within 135 to 138 °C.
For `CC(C)(C)OC(=O)N1CCC(c2ccc(COc3ccc(-n4cnnn4)cc3F)nc2)CC1` [Example 37, tert-Butyl 4-[2-[2-fluoro-4-(tetrazol-1-yl)phenoxymethyl]pyridin-5-yl]piperidine-1-carboxylate], the EC50 at human GPR119 is 80.6 nM.
On human GPR119, `CC(C)(C)OC(=O)N1CCC(c2ccc(COc3ccc(S(C)(=O)=O)cc3F)nc2)CC1` [Example 12, tert-Butyl 4-[2-(2-fluoro-4-methanesulfonylphenoxymethyl)pyridin-5-yl]piperidine-1-carboxylate] displayed an EC50 of 54.7 nM.
On to `CC(C)(C)OC(=O)N1CCC(c2ccc(COc3ccc(-n4cnnn4)cc3)nc2)CC1` [Example 17, tert-Butyl 4-[2-[4-(tetrazol-1-yl)phenoxymethyl]pyridin-5-yl]piperidine-1-carboxylate], for which, at human GPR119, the midpoint of the response, the EC50, lay at 34 nM.
Turning to `CC(C)(C)OC(=O)N1CCC(c2cnc(COc3ccc(S(C)(=O)=O)cc3)c(C(F)(F)F)c2)CC1` [Example 73, tert-Butyl 4-[2-(4-methanesulfonylphenoxymethyl)-3-trifluoromethylpyridin-5-yl]piperidine-1-carboxylate], at human GPR119, the EC50 turned out to be 48 nM.
`Cc1cc(S(C)(=O)=O)ccc1OCc1ccc(C2CCN(C(=O)OC(C)(C)C)CC2)cn1` [Example 22, tert-Butyl 4-[2-(4-methanesulfonyl-2-methylphenoxymethyl)pyridin-5-yl]piperidine-1-carboxylate] yielded an EC50 on human GPR119 of 24 nM.
`Cc1cc(C2CCN(C(=O)OC(C)(C)C)CC2)cnc1COc1ccc(-n2cnnn2)cc1F` [Example 83, tert-Butyl 4-[2-[2-fluoro-4-(tetrazol-1-yl)phenoxymethyl]-3-methylpyridin-5-yl]piperidine-1-carboxylate]: on human GPR119, the midpoint of the response, the EC50, lay at 21.9 nM and the “GPR119 agonist effect (in words)” value is “excellent GPR119 agonist effect”.
`CCc1cnc(N2CCC(c3ccc(COc4ccc(-n5cnnn5)cc4)nc3)CC2)nc1` [Example 51, 5-Ethyl-2-[4-[2-[4-(tetrazol-1-yl)phenoxymethyl]pyridin-5-yl]piperidin-1-yl]pyrimidine]: it took 257 nM to reach a half-maximal effect on human GPR119 (EC50).
`CC(C)(C)OC(=O)N1CCC(c2cnc(COc3ccc(S(C)(=O)=O)cc3)c(F)c2)CC1` [Example 75, tert-Butyl 4-[3-fluoro-2-(4-methanesulfonylphenoxymethyl)pyridin-5-yl]piperidine-1-carboxylate] yielded an EC50 at human GPR119 of 22.4 nM.
Compound `CC(C)(C)OC(=O)N1CCC(c2ccc(CSc3ccc(S(C)(=O)=O)cc3)nc2)CC1` [Example 84, tert-Butyl 4-[2-(4-methanesulfonylphenylthiomethyl)pyridin-5-yl]piperidine-1-carboxylate] yielded an EC50 at human GPR119 of 128 nM.
Still for that read-out and setting: with `CC(C)(C)OC(=O)N1CCC(c2ccc(CCc3ccc(S(C)(=O)=O)cc3)nc2)CC1` [Example 79, tert-Butyl 4-[2-[2-(4-methanesulfonylphenyl)ethyl]pyridin-5-yl]piperidine-1-carboxylate] the figure was 142 nM.
On the same count and under the same terms, the value for `CC(C)(C)OC(=O)N1CCC(c2cnc(COc3ccc(S(C)(=O)=O)cc3)c(Cl)c2)CC1` [Example 71, tert-Butyl 4-[3-chloro-2-(4-methanesulfonylphenoxymethyl)pyridin-5-yl]piperidine-1-carboxylate] was 29.3 nM.
Compound `CC(C)(C)OC(=O)N1CCC(c2ccc(COc3ccc(S(C)(=O)=O)c(F)c3)nc2)CC1` [Example 18, tert-Butyl 4-[2-(3-fluoro-4-methanesulfonylphenoxymethyl)pyridin-5-yl]piperidine-1-carboxylate] registered an EC50 on human GPR119 of 85.4 nM.
In the case of `Cc1cc(S(C)(=O)=O)ccc1OCc1ncc(C2CCN(C(=O)OC(C)(C)C)CC2)cc1C` [Example 82, tert-Butyl 4-[2-(4-methanesulfonyl-2-methylphenoxymethyl)-3-methylpyridin-5-yl]piperidine-1-carboxylate], the midpoint of the response at human GPR119, the EC50, lay at 58.8 nM.
Same read-out and setting: with `CC(C)(C)OC(=O)N1CCC(c2ccc(COc3ccc(S(N)(=O)=O)cc3)nc2)CC1` [Example 21, tert-Butyl 4-[2-(4-sulfamoylphenoxymethyl)pyridin-5-yl]piperidine-1-carboxylate] the figure was 59.3 nM.
Consider `CC(C)(C)OC(=O)N1CCC(c2ccc(COc3ccc(S(C)(=O)=O)cc3Cl)nc2)CC1` [Example 25, tert-Butyl 4-[2-(2-chloro-4-methanesulfonylphenoxymethyl)pyridin-5-yl]piperidine-1-carboxylate], for which, at human GPR119, a half-maximal response (EC50) required 21.2 nM and the “GPR119 agonist effect (in words)” value is “excellent GPR119 agonist effect”.
